4 compounds from US20070232690A1, “Composition for inducing differentiation of leukemic cells and application thereof” (Mackay Memorial Hospital, priority 2006, published 2007) can be followed below.

SMILES strings stand for the structures. In brackets after ≈: the same amount, converted by molar mass. Marks after values point to notes of the source that are not given here.

Common to all, as to type: cell-based, human
In assay [1] the test system is HL-60 cells. The assay is described as follows: Assay for cell growth inhibition (Trypan blue dye exclusion). The note with it: for inhibition at 5 µg/mL: 5 μg/ml. From the text: The human myeloid leukemic cell line HL-60 is known to be induced by several biological agents or chemical drugs to differentiate into mature cells. The results of differentiation can be cell morphological changes, cell chemical changes or functionally mature changes. Therefore, HL-60 cells were often applied in many differentiation studies of leukemic cells. The present invention used the human myeloid leukemic cell line HL-60 (ATCC, Manassas, Va.) to study the cell differentiation inducting ability of 278E.
The HL-60 cells were cultured in RPMI 1640 medium containing 10% fetal bovine serum and maintained in an exponential growth state. For assay of cytotoxicity, cells were incubated at an initial concentration of 1×10^5 cells/ml in the presence of various concentrations of 278E compounds (1-6 μg/ml) for 1-5 days.

Assay [2] concerns HL-60 cells. The assay is described as follows: Assay for differentiation antigens (indirect immunofluorescence, flow cytometry). The note with it: day 5. How it is done: An indirect immunofluorescence method was employed in the invention to detect the expression of monocyte-associated antigens on the surface of HL-60 cells after induction of differentiation. 278E-treated cells collected from day 5 cultures were treated with primary monoclonal antibodies, washed with PBS and then exposed to a solution containing […] (FITC) conjugated secondary antibody, goat F(ab′)2 antimouse IgG (Cappel, Cochranville, Pa.). The aforementioned monoclonal antibodies against human monocytes included anti-CD 11b, anti-CD14 (Serotec, Oxford, UK), and anti-CD68 (Dakopatts, Glostrup, Denmark). The percentage of positive cells analyzed with a FACScan flow cytometer (Becton Dickenson, Franklin Lakes, N.J.) and Lysis II software (Becton Dickinson) is shown in Table 2.

The subject of assay [3] is HL-60 cells. The assay is described as follows: Maturation profiles (morphology, Wright's stain). Here is the method: After 5 days of treatments (1-5 μg/ml of 278E) as described in Example 1, HL-60 cells were collected and cytocentrifuged onto a microscope slide using a Cytospin, stained with Wright's stain and observed under an inverted microscope (Olympus) with a magnification of 1000×. Based on morphology, the cells were classified as: (1) immature blasts, (2) intermediates, or (3) mature monocytes or macrophages, and the ratio was counted respectively.

Assay [4] relates to HL-60 cells. In words: Assay for superoxide production (NBT reduction). The note with it: 5 days. How it is done: It has been known that immature blast cells had little superoxide production. The differentiation of cells is further evidenced in changes of superoxide production. Cells collected from example 1 after treatment with 278E for 5 days were collected and resuspended in RPMI 1640 medium at a concentration of 1×10^6 cells/ml and incubated for 30 min at 37° C. with an equal volume of nitroblue tetrazolium test stock solution [containing 2 mg of NBT and 1 μM of phorbol myristate acetate per ml of phosphate buffered saline]. Cells were collected and cytocentrifuged onto a microscope slide using cytospin. Cytospin preparations were counter-stained with 0.5% safranin O. The percentage of formazan-containing cells (based on counting 200 cells) was assessed microscopically.

For assay [5], the system named is HL-60 cells. In words: Induction of monocytic differentiation by various combination treatments.
Assay [6] deals with c-myc, c-fms, c-fos and c-jun in HL-60 cells. In words: Expression of proto-oncogenes (RNA blot). Here is the method: Total RNA was isolated from HL-60 cells using an RNAzol B kit (Biotecx, Galveston, Tex.) and quantified spectrophotometrically. Total cellular RNA (20 μg) from control or 278E-treated cells was electrophoresed on a 1.2% agarose gel and transferred to a nylon membrane. The blots were probed with radiolabeled cDNA of c-myc, c-fms, c-fos and c-jun. Glyceraldehyde-3-phosphate dehydrogenase (G3PDH) was used as an internal control.

Assay [7] concerns HL-60 cells. In words: Induction of monocytic differentiation by various combination treatments. How it is done: After 5 days of treatments (1-5 μg/ml of […]) as described in Example 1, HL-60 cells were collected and cytocentrifuged onto a microscope slide using a Cytospin, stained with Wright's stain and observed under an inverted microscope (Olympus) with a magnification of 1000×. Based on morphology, the cells were classified as: […] These combination treatments included: […]
The source holds these as a separate data set.

`COc1cc(-c2oc3c(OC)cc(CCCO)cc3c2CO)ccc1Oc1ccccc1` [278E]: the “effect on cell viability compared with untreated cells” value in assay [1] (1 μg/ml) is “minimal effect”. For the same compound, the inhibition at 5 µg/mL came out at 85.5 ± 2.8% in assay [1] (Homo sapiens, HL-60, 72 h, day 3) and 91.7 ± 1.7% in assay [1] (Homo sapiens, HL-60, 120 h, day 5). In addition, the IC50 in assay [1] (Homo sapiens, HL-60 cells, viable cell count, 1-6 μg/ml for 1-5 days, read-out: concentration yielding 50% inhibition (IC50)) amounted to 3.48 µg/mL (≈ 8.01 µM). For the same compound, the “growth of HL-60 cells” value in assay [1] (dose- and time-dependent (FIG. 1)) is “inhibited significantly”. Besides, the “Positive cells (%) CD11b” value in assay [2] (1 μg/ml) was 1.8 ± 0.5%; in assay [2] (2 μg/ml), 2.6 ± 0.6%; in assay [2] (3 μg/ml), 18.1 ± 6.5 ^a %; in assay [2] (4 μg/ml), 62.1 ± 10.4 ^a %; in assay [2] (5 μg/ml), 79.6 ± 9.8 ^a %. The “Positive cells (%) CD14” value in assay [2] (1 μg/ml) is recorded as 1.5 ± 0.4%; in assay [2] (2 μg/ml) it was 2.1 ± 0.6%; in assay [2] (3 μg/ml), 5.8 ± 2.8%; in assay [2] (4 μg/ml), 47.7 ± 10.6 ^a %. Moreover, the “Positive cells (%) CD68” value in assay [2] (1 μg/ml) was 1.4 ± 0.4%; in assay [2] (2 μg/ml), 1.8 ± 0.4%; in assay [2] (3 μg/ml) it was 5.6 ± 2.1%; in assay [2] (4 μg/ml) it was 34.5 ± 9.9 ^a %; in assay [2] (5 μg/ml), 53.7 ± 10.0 ^a %. Also, the cell morphology entry in assay [3] (after 5 days of treatment (FIG. 2B)) was “many cells exhibited changes in characteristics”. Further, the “percentage of mature monocyte/macrophage” value in assay [3] (after 5 days of treatment (FIG. 3), concentration not given) came out at 82.0±6.3%. Moreover, the “NBT reduction, Positive cells (%)” value in assay [4] (1 μg/ml) was 0.3 ± 0.3%; in assay [4] (2 μg/ml) it was 1.8 ± 1.2%; in assay [4] (3 μg/ml) it was 9.3 ± 2.8%; in assay [4] (4 μg/ml), 59.0 ± 12.6 ^a %. In addition, the “monocytes/macrophages (%)” value turned out to be 51.3 ± 5.3% in assay [5] (278E 6 μg/m with H7 15 μM), 56.1 ± 6.2% in assay [5] (278E 6 μg/ml alone) and 55.6 ± 4.7% in assay [5] (278E 6 μg/ml with Staurosporine 10 nM). The expression of c-myc result in assay [6] (6 μg/ml, 16 hour treatment (FIG. 4A)) is “markedly suppressed”. Besides, the expression of c-fms entry in assay [6] (after treatment (FIG. 4B)) is recorded as “enhanced”. Moreover, the expression of c-jun entry in assay [6] (after treatment (FIG. 4C)) was “enhanced”. In assay [6] (after treatment (FIG. 4D)), the expression of c-fos entry was “enhanced”.
For `CC1CNCCN1S(=O)(=O)c1cccc2cnccc12` (centres unmarked) [H7], the “monocytes/macrophages (%)” value in assay [7] (H7 15 μM alone) was found to be 0%.
As for `CN[C@@H]1C[C@H]2O[C@@](C)([C@@H]1OC)n1c3ccccc3c3c4c(c5c6ccccc6n2c5c31)C(=O)NC4` [Staurosporine], in assay [7] (Staurosporine 10 nM alone), the “monocytes/macrophages (%)” value amounted to 0%.
As for `CCCCCCCCCCCCCC(=O)O[C@@H]1[C@@H](C)[C@@]2(O)[C@@H](C=C(CO)C[C@]3(O)C(=O)C(C)=C[C@@H]23)[C@H]2C(C)(C)[C@]12OC(C)=O` [TPA], the “differentiation-inducing activity after pretreatment of PKC inhibitor H7 and staurosporine” value in assay [7] (HL-60 cells, Table 3) was “suppressed”. Also, the figures for the “monocytes/macrophages (%)” value in assay [7] (TPA 10 ng/ml alone), in assay [7] (TPA 10 ng/ml with H7 15 μM) and in assay [7] (TPA 10 ng/ml with Staurosporine 10 nM) were 76.8 ± 7.2%, 30.2 ± 4.5% and 35.0 ± 2.3%, respectively.

Usually inhibition stands for how much of the control response was suppressed. High values mean a response far below the control, low ones a response near the control.
